Here are results for eleven compounds from PubChem BioAssay (NCI).

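Cultured in 96-well plates, cells were exposed to test compound for 48 hours across five concentrations. The concentration for 50% growth inhibition is given as GI50. At the TGI there is no net growth.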

Test systems include UACC-257 melanoma; HS 578T breast; NCI-H460 lung; RPMI-8226 leukemia; SF-295 CNS; NCI-H522 lung; UACC-62 melanoma; HT29 colon; MDA-N; DMS 273 small cell lung.
What all share (assay): inhibition of tumour cell growth, NCI panel, 48 h

For the compound `Nc1ncc(-c2ccc3ncnc(N4CCc5ccc(Cl)cc54)c3c2)cc1C(F)(F)F`, the GI50 is 2.86 µM in the experiment with UACC-257 melanoma; 0.326 µM in the experiment on HS 578T breast; 1.02 µM with NCI-H460 lung; 2.82 µM in the experiment on RPMI-8226 leukemia; 1.4 µM in the experiment with SF-295 CNS; 1.76 µM in the experiment with NCI-H522 lung. Moreover, the GI50 with UACC-62 melanoma is 0.965 µM; in the experiment on HT29 colon, 1.83 µM. Also, the TGI was 20.9 µM in the experiment with UACC-257 melanoma; 3.05 µM with HS 578T breast; 13.7 µM in the experiment with NCI-H460 lung; over 100 µM in the experiment with RPMI-8226 leukemia; 16.5 µM in the experiment with SF-295 CNS; 17.9 µM in the experiment on NCI-H522 lung. In addition, the results for the TGI with UACC-62 melanoma and in the experiment with HT29 colon were 11.1 µM and 16.2 µM, respectively.
Regarding `NC(Cc1c[nH]c2ccc([N+](=O)[O-])cc12)C(=O)O` (stereo not drawn), the TGI in the experiment on UACC-257 melanoma, in the experiment on HS 578T breast, in the experiment with RPMI-8226 leukemia, with SF-295 CNS, in the experiment on MDA-N and in the experiment on NCI-H522 lung was over 100 µM in each case. In addition, the TGI in the experiment with UACC-62 melanoma and in the experiment on HT29 colon was over 100 µM throughout.
Regarding `COc1ccc(/C=C/C(=O)c2c(-c3ccccc3)nn(C)c(=O)c2N2CCOCC2)cc1`, the TGI with DMS 273 small cell lung, in the experiment with NCI-H460 lung, with RPMI-8226 leukemia, in the experiment with SF-295 CNS, with NCI-H522 lung and with UACC-62 melanoma was over 100 µM in each case. In addition, the TGI in the experiment on HT29 colon was over 100 µM.
As for `C#CC1(O)C(COP(=O)(O)OCC2OC(n3cc(F)c(=O)[nH]c3=O)CC2O)OC(n2ccc(N)nc2=O)C1O` (stereo not drawn), the GI50 is 0.114 µM in the experiment with UACC-257 melanoma; under 0.0265 µM with HS 578T breast; under 0.01 µM with NCI-H460 lung; under 0.01 µM with RPMI-8226 leukemia; under 0.01 µM in the experiment with SF-295 CNS; under 0.01 µM with NCI-H522 lung. The GI50 is under 0.0141 µM in the experiment with UACC-62 melanoma and under 0.01 µM in the experiment on HT29 colon. The TGI in the experiment on UACC-257 melanoma was over 23.1 µM; in the experiment on HS 578T breast, 8.44 µM; in the experiment on NCI-H460 lung it was over 21.5 µM; in the experiment with RPMI-8226 leukemia, 0.119 µM; with SF-295 CNS it was 4.26 µM; in the experiment on NCI-H522 lung, over 100 µM. The figures for the TGI with UACC-62 melanoma and in the experiment with HT29 colon were 0.372 µM and over 100 µM, respectively.
In the case of `Nc1nc2c(-c3ccc([N+](=O)[O-])cc3)nnn2c2ccccc12`, the TGI in the experiment with DMS 273 small cell lung, with NCI-H460 lung, with RPMI-8226 leukemia, in the experiment on SF-295 CNS, with UACC-62 melanoma and in the experiment on HT29 colon was over 100 µM each time.
Regarding `CC(=O)Nc1cc2cc(NS(=O)(=O)c3ccc(Cl)c(Cl)c3)ccc2oc1=O`, the TGI is over 100 µM in the experiment with UACC-257 melanoma; 59.7 µM in the experiment with HS 578T breast; over 100 µM in the experiment with NCI-H460 lung; over 100 µM with RPMI-8226 leukemia; 44.5 µM in the experiment with SF-295 CNS; over 100 µM with MDA-N. In addition, the TGI in the experiment with NCI-H522 lung is 63.6 µM; with UACC-62 melanoma, 62.8 µM; in the experiment with HT29 colon it was over 100 µM.
`CCOc1ccc(C(C[N+](=O)[O-])Sc2ccccc2N)cc1` (stereo not drawn): the GI50 was 4.6 µM in the experiment on UACC-257 melanoma; 3.1 µM in the experiment with HS 578T breast; 10.2 µM in the experiment with NCI-H460 lung; 2.23 µM in the experiment on RPMI-8226 leukemia; 4.39 µM in the experiment on SF-295 CNS; 11.8 µM in the experiment on NCI-H522 lung. Further, the GI50 in the experiment on UACC-62 melanoma is 10 µM; in the experiment with HT29 colon it was 2.07 µM. In addition, the TGI turned out to be 16.7 µM in the experiment with UACC-257 melanoma; 18.3 µM in the experiment with HS 578T breast; 27 µM in the experiment on NCI-H460 lung; 5.32 µM in the experiment on RPMI-8226 leukemia; 17.3 µM with SF-295 CNS; 24.9 µM with NCI-H522 lung. Further, the results for the TGI in the experiment on UACC-62 melanoma and in the experiment on HT29 colon were 21.6 µM and 4.19 µM, respectively.
In the case of `Cc1nc2sc3c(N)ncnc3c2c(C)c1C`, the GI50 is over 25 µM in the experiment on UACC-257 melanoma; 24.9 µM in the experiment with HS 578T breast; over 25 µM in the experiment with NCI-H460 lung; over 25 µM with RPMI-8226 leukemia; over 25 µM in the experiment with SF-295 CNS; over 25 µM in the experiment with NCI-H522 lung. For the same compound, the GI50 with UACC-62 melanoma and with HT29 colon was over 25 µM each time. The TGI in the experiment with UACC-257 melanoma, in the experiment with HS 578T breast, in the experiment with NCI-H460 lung, with RPMI-8226 leukemia, in the experiment on SF-295 CNS and in the experiment on NCI-H522 lung was over 25 µM each time. For the same compound, the TGI with UACC-62 melanoma and in the experiment on HT29 colon was over 25 µM each time.
Consider `Cn1cc(C2=C(c3cn(CCCN)c4ccccc34)C(=O)NC2=O)c2ccccc21`, for which the GI50 with UACC-257 melanoma is 4.9 µM; with HS 578T breast it was 3.91 µM; in the experiment with NCI-H460 lung, 5.25 µM; in the experiment on RPMI-8226 leukemia, 5.91 µM; in the experiment on SF-295 CNS, 7.38 µM; in the experiment on NCI-H522 lung, 4.12 µM. The results for the GI50 with UACC-62 melanoma and in the experiment with HT29 colon were 4.35 µM and 4.74 µM, respectively. Further, the TGI in the experiment with UACC-257 melanoma is 9.05 µM; in the experiment with HS 578T breast it was 16.8 µM; in the experiment with NCI-H460 lung, 11.1 µM; in the experiment on RPMI-8226 leukemia, 12.5 µM; with SF-295 CNS, over 25 µM; in the experiment on NCI-H522 lung, 9.13 µM. For the same compound, the TGI with UACC-62 melanoma is 8.05 µM; in the experiment with HT29 colon, 18.4 µM.
`OC1CCCC2CCC[N-]C12.OC1CCCC2CCC[N-]C12.[O]=[V][OH]` (stereo not drawn): the GI50 in the experiment on UACC-257 melanoma is 4.05 µM; with HS 578T breast, 21.2 µM; in the experiment with NCI-H460 lung it was 5.49 µM; in the experiment on RPMI-8226 leukemia it was 2.54 µM; with SF-295 CNS, 9.84 µM; in the experiment with MDA-N it was 5.86 µM. For the same compound, the values for the GI50 with NCI-H522 lung, with UACC-62 melanoma and in the experiment with HT29 colon were 0.743 µM, 3.98 µM and 4.72 µM, respectively. The TGI is over 100 µM in the experiment on UACC-257 melanoma; over 100 µM in the experiment on HS 578T breast; over 100 µM with NCI-H460 lung; 25.8 µM in the experiment on RPMI-8226 leukemia; 76.9 µM with SF-295 CNS; over 100 µM in the experiment with MDA-N. For the same compound, the TGI in the experiment on NCI-H522 lung was 25.7 µM; in the experiment with UACC-62 melanoma, 24.7 µM; with HT29 colon it was over 100 µM.
For `CCC(=O)N1C/C(=C/c2ccc(Br)cc2)C(=O)/C(=C/c2ccc(Br)cc2)C1`, the GI50 was 1.63 µM with UACC-257 melanoma; 0.644 µM with HS 578T breast; 0.827 µM in the experiment with NCI-H460 lung; under 0.0497 µM in the experiment with RPMI-8226 leukemia; 1.6 µM in the experiment with SF-295 CNS; 1.4 µM in the experiment on NCI-H522 lung. In addition, the GI50 in the experiment with UACC-62 melanoma is 0.724 µM; with HT29 colon it was 0.102 µM. Besides, the TGI with UACC-257 melanoma amounted to 3.47 µM; in the experiment with HS 578T breast, 4.12 µM; in the experiment on NCI-H460 lung, 3.07 µM; in the experiment with SF-295 CNS, 4.3 µM; in the experiment on NCI-H522 lung, 2.8 µM; in the experiment on UACC-62 melanoma, 2.06 µM. In addition, the TGI in the experiment on HT29 colon turned out to be 0.433 µM.
